Test results: ChEMBL document CHEMBL5137081, “N-Heterocyclic 3-Pyridyl Carboxamide Inhibitors of DHODH for the Treatment of Acute Myelogenous Leukemia” (J Med Chem, 2022)
Converted amounts (≈) assume the structure as drawn.

Columns and labels:
[1] = Tmax in C57BL/6 mouse at 10 mg/kg, po or 2 mg/kg, iv measured upto 24 hrs by LC-MS/MS analysis; assay type: ADME, organism-based; details: in vivo
[2] = Cmax in Sprague-Dawley rat at 10 mg/kg, po or 2 mg/kg, iv measured upto 24 hrs by LC-MS/MS analysis; assay type: ADME, organism-based; parameters: dose 10 mg/kg, time < 24 hrs, route po; details: in vivo
[3] = Half life in Sprague-Dawley rat at 10 mg/kg, po or 2 mg/kg, iv measured upto 24 hrs by LC-MS/MS analysis; assay type: ADME, organism-based; details: in vivo
[4] = Volume of distribution at steady state in C57BL/6 mouse at 10 mg/kg, po or 2 mg/kg, iv measured upto 24 hrs by LC-MS/MS analysis; assay type: ADME, organism-based; details: in vivo
[5] = Lipophilicity, logD of compound at pH 7.4; assay type: physicochemical; details: buffer
[6] = Metabolic stability in monkey liver microsome assessed as intrinsic clearance pretreated for 5 mins followed by NADPH addition and measured upto 60 mins by HPLC-MS/MS analysis; assay type: ADME, Macaca mulatta; details: rhesus monkey, liver microsomes; time < 65 min; read-out: CLH
[7] = Inhibition of monkey DHODH; parameters: species or system Macaca mulatta
[8] = Cmax in C57BL/6 mouse at 10 mg/kg, po or 2 mg/kg, iv measured upto 24 hrs by LC-MS/MS analysis; assay type: ADME, organism-based; parameters: time < 24 hrs, dose 10 mg/kg, route po; details: in vivo
[9] = Metabolic stability in human liver microsome assessed as intrinsic clearance pretreated for 5 mins followed by NADPH addition and measured upto 60 mins by HPLC-MS/MS analysis; assay type: ADME; details: microsomes, 1.083 h, time < 65 min
[10] = Metabolic stability in mouse liver microsome assessed as intrinsic clearance pretreated for 5 mins followed by NADPH addition and measured upto 60 mins by HPLC-MS/MS analysis; assay type: ADME; details: liver microsomes, time < 65 min, read-out: CLH
[11] = AUC(0 to infinity) in C57BL/6 mouse at 10 mg/kg, po or 2 mg/kg, iv measured upto 24 hrs by LC-MS/MS analysis; assay type: ADME, organism-based; parameters: time < 24 hrs, dose 10 mg/kg, route po; details: in vivo
[12] = Intrinsic clearance in mouse hepatocytes measured per 10^6 cells; assay type: ADME, cell-based, Hepatocyte
[13] = Metabolic stability in rat liver microsome assessed as intrinsic clearance pretreated for 5 mins followed by NADPH addition and measured upto 60 mins by HPLC-MS/MS analysis; assay type: ADME; details: liver microsomes, time < 65 min, read-out: CLH
[14] = Stability in human hepatocytes assessed as intrinsic clearance measured per 10^6 cells incubated upto 120 mins by LC-MS/MS analysis; assay type: ADME, cell-based, Hepatocyte; details: 2 h
Cytochrome P450 2C9 = Cytochrome P450 2C9 (Homo sapiens, UniProt P11712); assay: Inhibition of CYP2C9 in human liver microsomes incubated for 10 mins by LC-MS/MS analysis; assay type: ADME, Microsome
[15] = Oral bioavailability in Sprague-Dawley rat at 10 mg/kg measured upto 24 hrs by LC-MS/MS analysis; assay type: ADME, organism-based; details: in vivo
[16] = target: T1, Dihydroorotate dehydrogenase (quinone), mitochondrial (Homo sapiens, UniProt Q02127); assay: Inhibition of His fused human DHODH expressed in Escherichia coli using DHO as substrate by DCIP absorbance based colorimetry assay
[17] = Intrinsic clearance in dog hepatocytes measured per 10^6 cells; assay type: ADME, cell-based, Canis lupus familiaris, Hepatocyte
[18] = target: T1, Dihydroorotate dehydrogenase (quinone), mitochondrial; assay: Binding affinity to His fused human DHODH expressed in Escherichia coli by surface plasmon resonance assay
[19] = target: Dihydroorotate dehydrogenase (quinone), mitochondrial (Rattus norvegicus, UniProt Q63707); assay: Inhibition of rat DHODH
[20] = target: T1, Dihydroorotate dehydrogenase (quinone), mitochondrial
Description: Binding affinity to His fused human DHODH expressed in Escherichia coli assessed as dissociation half life by surface plasmon resonance assay

[21] = Volume of distribution at steady state in Sprague-Dawley rat at 10 mg/kg, po or 2 mg/kg, iv measured upto 24 hrs by LC-MS/MS analysis; assay type: ADME, organism-based; details: in vivo
[22] = Intrinsic clearance in rat hepatocytes measured per 10^6 cells; assay type: ADME, cell-based, Hepatocyte
MOLM-13 = assay: Antiproliferative activity against human MOLM-13 cells incubated for 72 hrs by CellTiter-Glo assay; assay type: functional, cell-based; details: MOLM-13, 72 h
[23] = target: Voltage-gated inwardly rectifying potassium channel KCNH2 (Homo sapiens, UniProt Q12809); assay: Inhibition of hERG expressed in HEK293 cells by radioligand binding assay; assay type: toxicity, cell-based
[24] = AUC(0 to infinity) in Sprague-Dawley rat at 10 mg/kg, po or 2 mg/kg, iv measured upto 24 hrs by LC-MS/MS analysis; assay type: ADME, organism-based; parameters: dose 10 mg/kg, time < 24 hrs, route po; details: in vivo
Cytochrome P450 2C19 = Cytochrome P450 2C19 (Homo sapiens, UniProt P33261); assay: Inhibition of CYP2C19 in human liver microsomes incubated for 10 mins by LC-MS/MS analysis; assay type: ADME, Microsome
[25] = target: Dihydroorotate dehydrogenase (quinone), mitochondrial (Mus musculus, UniProt O35435); assay: Inhibition of mouse DHODH
[26] = Oral bioavailability in C57BL/6 mouse at 10 mg/kg measured upto 24 hrs by LC-MS/MS analysis; assay type: ADME, organism-based; details: in vivo
Cytochrome P450 3A4 = Cytochrome P450 3A4 (Homo sapiens, UniProt P08684); assay: Inhibition of CYP3A4 in human liver microsomes using midazolam as substrate measured after 5 mins by LC-MS/MS analysis; assay type: ADME, Microsome
[27] = Plasma protein binding in rat assessed as free fraction at 1 uM by equilibrium dialysis based LC-MS/MS analysis; assay type: ADME, cell-free
[28] = Tmax in Sprague-Dawley rat at 10 mg/kg, po or 2 mg/kg, iv measured upto 24 hrs by LC-MS/MS analysis; assay type: ADME, organism-based; details: in vivo
THP-1 = assay: Antiproliferative activity against human THP-1 cells assessed as reduction in cell viability measured after 72 hrs; assay type: functional, cell-based; details: THP-1, 72 h
[29] = Plasma protein binding in mouse assessed as free fraction at 1 uM by equilibrium dialysis based LC-MS/MS analysis; assay type: ADME, cell-free
[30] = Plasma protein binding in human assessed as free fraction at 1 uM by equilibrium dialysis based LC-MS/MS analysis; assay type: ADME, cell-free
[31] = Inhibition of dog DHODH; parameters: species or system Canis lupus familiaris
[32] = Metabolic stability in dog liver microsome assessed as intrinsic clearance pretreated for 5 mins followed by NADPH addition and measured upto 60 mins by HPLC-MS/MS analysis; assay type: ADME, Canis lupus familiaris; details: liver microsomes, time < 65 min, read-out: CLH
[33] = Plasma protein binding in dog assessed as free fraction at 1 uM by equilibrium dialysis based LC-MS/MS analysis; assay type: ADME, cell-free, Canis lupus familiaris
[34] = Solubility of compound at pH 7 by HPLC analysis; assay type: physicochemical; details: buffer

T1 sequence (Q02127 whole entry, the tested form may be a part): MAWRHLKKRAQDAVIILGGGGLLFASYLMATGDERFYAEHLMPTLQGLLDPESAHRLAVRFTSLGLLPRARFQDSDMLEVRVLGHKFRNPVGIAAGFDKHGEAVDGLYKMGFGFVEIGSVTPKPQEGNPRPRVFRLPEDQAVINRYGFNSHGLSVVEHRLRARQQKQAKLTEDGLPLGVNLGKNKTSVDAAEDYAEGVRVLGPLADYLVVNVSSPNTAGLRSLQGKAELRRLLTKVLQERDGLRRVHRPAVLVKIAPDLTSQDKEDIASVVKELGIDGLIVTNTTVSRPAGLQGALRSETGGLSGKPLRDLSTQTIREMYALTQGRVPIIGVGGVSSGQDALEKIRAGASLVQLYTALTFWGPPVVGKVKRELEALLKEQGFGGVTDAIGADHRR
Sequence of Cytochrome P450 2C19 (P33261 whole entry): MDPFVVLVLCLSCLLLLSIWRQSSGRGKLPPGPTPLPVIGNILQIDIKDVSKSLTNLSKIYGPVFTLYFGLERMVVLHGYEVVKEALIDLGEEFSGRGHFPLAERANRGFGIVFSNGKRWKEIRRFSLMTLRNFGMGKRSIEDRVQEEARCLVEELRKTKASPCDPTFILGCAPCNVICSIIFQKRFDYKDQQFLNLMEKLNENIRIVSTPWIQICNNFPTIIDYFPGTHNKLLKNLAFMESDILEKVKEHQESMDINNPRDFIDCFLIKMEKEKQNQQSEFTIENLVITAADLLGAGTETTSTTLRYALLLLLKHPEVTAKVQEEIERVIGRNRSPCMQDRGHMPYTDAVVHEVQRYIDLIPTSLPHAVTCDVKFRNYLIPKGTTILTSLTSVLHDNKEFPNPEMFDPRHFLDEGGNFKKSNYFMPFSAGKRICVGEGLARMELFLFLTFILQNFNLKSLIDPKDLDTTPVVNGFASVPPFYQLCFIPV
Sequence of Dihydroorotate dehydrogenase (quinone), mitochondrial (Rattus norvegicus, UniProt Q63707) (Q63707 whole entry): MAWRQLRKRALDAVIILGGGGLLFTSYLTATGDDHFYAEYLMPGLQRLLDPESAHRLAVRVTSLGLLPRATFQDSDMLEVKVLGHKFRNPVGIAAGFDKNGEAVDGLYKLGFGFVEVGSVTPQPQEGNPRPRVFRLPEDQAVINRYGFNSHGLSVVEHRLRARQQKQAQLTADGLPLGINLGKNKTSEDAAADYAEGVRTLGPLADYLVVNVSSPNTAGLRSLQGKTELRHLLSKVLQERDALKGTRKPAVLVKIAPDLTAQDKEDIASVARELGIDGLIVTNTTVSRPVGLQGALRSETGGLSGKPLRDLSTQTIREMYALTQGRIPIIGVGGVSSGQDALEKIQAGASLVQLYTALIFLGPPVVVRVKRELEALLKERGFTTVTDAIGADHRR
Sequence of Voltage-gated inwardly rectifying potassium channel KCNH2 (Q12809 whole entry): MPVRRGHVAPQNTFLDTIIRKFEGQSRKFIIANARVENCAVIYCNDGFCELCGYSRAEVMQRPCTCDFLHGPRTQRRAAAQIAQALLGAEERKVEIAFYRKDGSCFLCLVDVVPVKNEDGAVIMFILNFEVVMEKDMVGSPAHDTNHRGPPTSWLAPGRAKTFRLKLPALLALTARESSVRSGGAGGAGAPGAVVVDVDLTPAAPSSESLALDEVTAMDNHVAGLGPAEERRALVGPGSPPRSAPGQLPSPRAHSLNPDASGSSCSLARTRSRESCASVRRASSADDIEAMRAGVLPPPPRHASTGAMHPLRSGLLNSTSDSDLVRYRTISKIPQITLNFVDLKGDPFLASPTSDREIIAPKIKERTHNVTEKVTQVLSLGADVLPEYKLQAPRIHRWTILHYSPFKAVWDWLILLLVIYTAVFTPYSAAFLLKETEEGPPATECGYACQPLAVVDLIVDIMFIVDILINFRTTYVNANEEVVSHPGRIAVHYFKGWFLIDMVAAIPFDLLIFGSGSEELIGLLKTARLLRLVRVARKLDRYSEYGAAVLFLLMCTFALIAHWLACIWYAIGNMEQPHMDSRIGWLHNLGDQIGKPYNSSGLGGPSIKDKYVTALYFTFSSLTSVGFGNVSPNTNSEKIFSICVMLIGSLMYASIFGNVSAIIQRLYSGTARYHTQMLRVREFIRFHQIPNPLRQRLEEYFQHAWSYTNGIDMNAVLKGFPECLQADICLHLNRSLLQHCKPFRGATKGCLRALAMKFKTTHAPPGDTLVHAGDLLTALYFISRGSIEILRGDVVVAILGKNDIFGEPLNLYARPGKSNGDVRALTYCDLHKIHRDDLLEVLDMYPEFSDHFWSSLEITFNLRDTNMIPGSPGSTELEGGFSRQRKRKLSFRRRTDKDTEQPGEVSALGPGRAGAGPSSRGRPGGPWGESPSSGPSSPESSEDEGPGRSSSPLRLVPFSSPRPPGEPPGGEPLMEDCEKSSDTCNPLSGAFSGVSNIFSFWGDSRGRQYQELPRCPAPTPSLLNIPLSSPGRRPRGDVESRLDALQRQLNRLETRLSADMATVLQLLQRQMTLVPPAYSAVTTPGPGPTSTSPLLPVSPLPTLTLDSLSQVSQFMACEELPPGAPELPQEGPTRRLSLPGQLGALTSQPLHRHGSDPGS
Sequence of Cytochrome P450 2C9 (P11712 whole entry): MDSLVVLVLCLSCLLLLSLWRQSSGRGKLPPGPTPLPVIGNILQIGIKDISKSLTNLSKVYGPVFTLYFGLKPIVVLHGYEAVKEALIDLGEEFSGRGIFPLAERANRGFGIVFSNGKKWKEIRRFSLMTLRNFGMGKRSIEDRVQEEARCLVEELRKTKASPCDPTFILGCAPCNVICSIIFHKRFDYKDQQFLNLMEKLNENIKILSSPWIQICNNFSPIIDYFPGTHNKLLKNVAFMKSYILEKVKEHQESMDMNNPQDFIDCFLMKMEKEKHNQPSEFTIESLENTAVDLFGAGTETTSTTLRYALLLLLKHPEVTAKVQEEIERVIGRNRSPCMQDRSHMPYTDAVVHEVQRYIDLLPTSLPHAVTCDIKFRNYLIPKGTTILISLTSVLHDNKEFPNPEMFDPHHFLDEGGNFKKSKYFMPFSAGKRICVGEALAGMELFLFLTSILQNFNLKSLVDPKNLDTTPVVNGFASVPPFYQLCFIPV
Sequence of Cytochrome P450 3A4 (P08684 whole entry): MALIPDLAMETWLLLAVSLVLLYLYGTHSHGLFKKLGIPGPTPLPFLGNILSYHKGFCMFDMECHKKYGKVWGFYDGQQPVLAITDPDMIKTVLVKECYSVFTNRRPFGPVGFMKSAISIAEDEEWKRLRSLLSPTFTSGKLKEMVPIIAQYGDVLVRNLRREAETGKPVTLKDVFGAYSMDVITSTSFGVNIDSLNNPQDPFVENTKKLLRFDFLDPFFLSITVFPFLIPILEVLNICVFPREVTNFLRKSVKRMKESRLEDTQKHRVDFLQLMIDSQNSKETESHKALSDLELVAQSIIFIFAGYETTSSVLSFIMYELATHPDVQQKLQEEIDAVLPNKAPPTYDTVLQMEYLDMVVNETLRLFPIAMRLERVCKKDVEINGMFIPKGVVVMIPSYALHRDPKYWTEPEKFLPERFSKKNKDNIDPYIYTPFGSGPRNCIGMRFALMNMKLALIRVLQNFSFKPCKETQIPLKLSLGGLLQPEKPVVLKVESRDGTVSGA
Sequence of Dihydroorotate dehydrogenase (quinone), mitochondrial (Mus musculus, UniProt O35435) (O35435 whole entry): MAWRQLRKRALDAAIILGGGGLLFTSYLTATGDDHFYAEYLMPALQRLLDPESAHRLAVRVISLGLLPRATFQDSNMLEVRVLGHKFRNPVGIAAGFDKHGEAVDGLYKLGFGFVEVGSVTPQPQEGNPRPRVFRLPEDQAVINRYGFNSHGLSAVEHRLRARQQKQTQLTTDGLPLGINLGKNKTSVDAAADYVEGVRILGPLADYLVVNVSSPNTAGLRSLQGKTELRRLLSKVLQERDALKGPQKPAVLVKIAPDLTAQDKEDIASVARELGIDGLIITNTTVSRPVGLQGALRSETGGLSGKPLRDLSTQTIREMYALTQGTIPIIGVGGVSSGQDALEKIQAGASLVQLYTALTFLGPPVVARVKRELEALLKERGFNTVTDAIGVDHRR

Compound | Tmax [1] | Cmax [2] | half-life [3] | Vdss [4] | logD [5] | CLint scaled [6] | IC50 [7] | Cmax [8] | CLH [9] | CLint scaled [10] | AUC(0-inf) [11] | CLH [12] | CLint scaled [13] | CLH [14] | IC50 (Cytochrome P450 2C9) | IC50 [16] | CLH [17] | Kd [18] | IC50 [19] | T1/2 [20] | other results
CCn1c(CO)nn(-c2nc(O[C@@H](C)C(F)(F)F)c(C(=O)Nc3c(C)ccnc3Cl)cc2F)c1=O | 0.42 h | 1710 ng/mL | 2 h | 1.3 L/kg | 2.7 | 4 mL/min/kg | 1.6 nM | 4050 ng/mL | 8 µL/min/mg | 5.7 mL/min/kg | 16100 ng·h/mL | 5.7 µL/min/1e6 cells | 5.2 mL/min/kg | < 1.9 µL/min/1e6 cells | > 10000 nM | 1.1 nM | 8.3 µL/min/1e6 cells | 3.3 nM | 1580 nM | 0.5 h | F ([15]; po, 10 mg/kg, 24 h): 167%; Vdss [21]: 2.3 L/kg; CLH [22]: 5.2 µL/min/1e6 cells; IC50 (MOLM-13): 2 nM; IC50 [23]: > 10000 nM; AUC(0-inf) [24]: 9210 ng·h/mL; IC50 (Cytochrome P450 2C19): > 10000 nM; IC50 [25]: 140 nM; bioavailability [26]: 103%; IC50 (Cytochrome P450 3A4): > 10000 nM; fraction unbound at 1 µM [27]: 0.28; Tmax [28]: 1.7 h; IC50 (THP-1): 5 nM; fraction unbound at 1 µM [29]: 0.23; fraction unbound at 1 µM [30]: 0.38; IC50 [31]: 8.5 nM; CLint scaled [32]: 8.3 mL/min/kg; fraction unbound at 1 µM [33]: 0.33; solubility [34]: > 400 µM
CCn1c(CO)nn(-c2nc(O[C@@H](C)C(F)(F)F)c(C(=O)Nc3c(C)cnc(OC)c3Cl)cc2F)c1=O | 1 h | 2190 ng/mL | 4 h | 2.4 L/kg | 2.4 | 5.3 mL/min/kg | 0.54 nM | 3810 ng/mL | < 7.7 µL/min/mg | 5.5 mL/min/kg | 25000 ng·h/mL | 5.5 µL/min/1e6 cells | 6.2 mL/min/kg | 2.3 µL/min/1e6 cells | > 10000 nM | 0.3 nM | 86 µL/min/1e6 cells | 1.1 nM | 130 nM | 0.65 h | bioavailability ([15]; Sprague-Dawley): 106%; Vdss [21]: 2.2 L/kg; CLH [22]: 6.2 µL/min/1e6 cells; IC50 (MOLM-13): 0.4 nM; IC50 [23]: > 10000 nM; AUC(0-inf) [24]: 23800 ng·h/mL; IC50 (Cytochrome P450 2C19): > 10000 nM; IC50 [25]: 10 nM; bioavailability [26]: 110%; IC50 (Cytochrome P450 3A4): > 10000 nM; fraction unbound at 1 µM [27]: 0.078; Tmax [28]: 4 h; IC50 (THP-1): 1.4 nM; fraction unbound at 1 µM [29]: 0.062; fraction unbound at 1 µM [30]: 0.063; IC50 [31]: 4.2 nM; CLint scaled [32]: 86 mL/min/kg; fraction unbound at 1 µM [33]: 0.042; solubility [34]: 5 µM (≈ 2.74 µg/mL)
